# Counter-ions that a name gives are not always drawn.
# Test system: c-Myc
# Assay: c-Myc immunofluorescence assay
# Format: cell-based, human
# Details: A549 cells, 24 hours treatment, anti-c-Myc immunofluorescence
# Method: A549 human non-small cell lung carcinoma cells were treated for 24 hours with increasing compound concentration, cells were fixed and stained with a nuclei stain (DAPI) and anti-c-Myc fluorescent antibody. The c-Myc signal was quantified by image analysis, and data was exported and analyzed using TIBCO Spotfire® (TIBCO Corporation). Dose response curves were generated and fitted with logaristic regression to calculate potency (EC50 values). Potency values are presented in Table 2 for all compounds and are shown for selected compounds (FIG. 4).
# A549 cells were grown in 384-wells plates (Perkin Elmer, Cat. 6057300) for 48 hours, treated with compounds and then fixed for 20 min in 4% paraformaldehyde. After that permeabilization was done using 0.1% Triton X-100 in PBS for 20 min. Primary anti-c-Myc antibody (Abcam, ab32072) staining was performed for 90 min at room temperature. Cells then were washed twice with PBS and incubated with secondary antibody (Abcam, ab150075) for 90 min at room temperature. Nuclei were stained with DAPI for 10 min and washed twice with PBS.
# Cell images were taken with Operetta (Perkin Elmer, USA), a wide-field fluorescence microscope at 20× magnification. After acquisition, the images were transferred to Columbus software (Perkin-Elmer) for image analysis. In Columbus, cells were identified by their nucleus, using the “Find Nuceli” module and cytoplasm was detected based on the secondary antibody channel. Subsequently, the fluorescent signal was enumerated in the identified cell region. Then data was exported to a data analysis and visualization software, Tibco Spotfire, USA.
row,SMILES,Myc Efficacy (−LogEC50)
1,"CO[C@H]1CN[C@@H](c2ccc(-c3cn4c(n3)sc3cc(C(=O)NCCCN5CCC(F)CC5)ccc34)c(F)c2)C1 (relative stereo) [Compound 523, 2-(2-fluoro-4-((cis)-4-methoxypyrrolidin-2-yl)phenyl)-N-(3-(4-fluoropiperidin-1-yl)propyl)benzo[d]imidazo[2,1-b]thiazole-7-carboxamide]",+++ (+++ ≥6)
2,"CO[C@H]1CN[C@@H](c2ccc(-c3cn4c(n3)sc3cc(C(=O)NC5CCN(C)CC5)ccc34)c(F)c2)C1 (relative stereo) [Compound 532, 2-(2-fluoro-4-((cis)-4-methoxypyrrolidin-2-yl)phenyl)-N-(1-methylpiperidin-4-yl)benzo[d]imidazo[2,1-b]thiazole-7-carboxamide]",+++ (+++ ≥6)
3,"O=C(NC1CCOCC1)c1ccc2c(c1)sc1nc(-c3ccc([C@H]4C[C@@H](O)CN4)cc3F)cn12 (relative stereo) [Compound 533, 2-(2-fluoro-4-((cis)-4-hydroxypyrrolidin-2-yl)phenyl)-N-(tetrahydro-2H-pyran-4-yl)benzo[d]imidazo[2,1-b]thiazole-7-carboxamide]",+++ (+++ ≥6)
4,"O=C(NC1CCOCC1)c1ccc2c(c1)sc1nc(-c3ccc([C@H]4C[C@H](O)CN4)cc3F)cn12 (relative stereo) [Compound 538, 2-(2-fluoro-4-((trans)-4-hydroxypyrrolidin-2-yl)phenyl)-N-(tetrahydro-2H-pyran-4-yl)benzo[d]imidazo[2,1-b]thiazole-7-carboxamide]",+++ (+++ ≥6)
5,"CNC(=O)c1ccc2c(c1)sc1nc(-c3ccc([C@H]4C[C@H](O)CN4)cc3F)cn12 (relative stereo) [Compound 544, 2-(2-fluoro-4-((trans)-4-hydroxypyrrolidin-2-yl)phenyl)-N-methylbenzo[d]imidazo[2,1-b]thiazole-7-carboxamide]",+++ (+++ ≥6)
6,"O=C(N[C@@H]1CCOC1)c1ccc2c(c1)sc1nc(-c3ccc(C4CCCN4)cc3F)cn12 (stereo partly drawn) [524R, 2-(2-fluoro-4-(pyrrolidin-2-yl)phenyl)-N-((R)-tetrahydrofuran-3-yl)benzo[d]imidazo[2,1-b]thiazole-7-carboxamide]",++ (++ ≥5 and <6)
7,"O=C(N[C@H]1CCOC1)c1ccc2c(c1)sc1nc(-c3ccc(C4CCCN4)cc3F)cn12 (stereo partly drawn) [524S, 2-(2-fluoro-4-(pyrrolidin-2-yl)phenyl)-N-((S)-tetrahydrofuran-3-yl)benzo[d]imidazo[2,1-b]thiazole-7-carboxamide]",++ (++ ≥5 and <6)
8,"O=C(NCCCN1CCC(F)CC1)c1ccc2c(c1)sc1nc(-c3ccc([C@H]4CCCO4)cc3F)cn12 [Compound 428R, (R)-2-(2-fluoro-4-(tetrahydrofuran-2-yl)phenyl)-N-(3-(4-fluoropiperidin-1-yl)propyl)benzo[d]imidazo[2,1-b]thiazole-7-carboxamide]",++ (++ ≥5 and <6)
9,"O=C(NCCCN1CCC(F)CC1)c1ccc2c(c1)sc1nc(-c3ccc([C@@H]4CCCO4)cc3F)cn12 [Compound 428S, (S)-2-(2-fluoro-4-(tetrahydrofuran-2-yl)phenyl)-N-(3-(4-fluoropiperidin-1-yl)propyl)benzo[d]imidazo[2,1-b]thiazole-7-carboxamide]",+++ (+++ ≥6)
10,"O=C1CC[C@H](c2ccc(-c3cn4c(n3)sc3cc(C(=O)NCCCN5CCC(F)CC5)ccc34)c(F)c2)N1 [Compound 432R, (R)-2-(2-fluoro-4-(5-oxopyrrolidin-2-yl)phenyl)-N-(3-(4-fluoropiperidin-1-yl)propyl)benzo[d]imidazo[2,1-b]thiazole-7-carboxamide]",+++ (+++ ≥6)
11,"O=C1CC[C@@H](c2ccc(-c3cn4c(n3)sc3cc(C(=O)NCCCN5CCC(F)CC5)ccc34)c(F)c2)N1 [Compound 432S, (S)-2-(2-fluoro-4-(5-oxopyrrolidin-2-yl)phenyl)-N-(3-(4-fluoropiperidin-1-yl)propyl)benzo[d]imidazo[2,1-b]thiazole-7-carboxamide]",+++ (+++ ≥6)
12,"O=C(NCCCN1CCC(F)CC1)c1ccc2c(c1)sc1nc(-c3ccc([C@H]4CCNC4)cc3F)cn12 [Compound 434R, (R)-2-(2-fluoro-4-(pyrrolidin-3-yl)phenyl)-N-(3-(4-fluoropiperidin-1-yl)propyl)benzo[d]imidazo[2,1-b]thiazole-7-carboxamide]",+++ (+++ ≥6)
13,"O=C(NCCCN1CCC(F)CC1)c1ccc2c(c1)sc1nc(-c3ccc([C@@H]4CCNC4)cc3F)cn12 [Compound 434S, (S)-2-(2-fluoro-4-(pyrrolidin-3-yl)phenyl)-N-(3-(4-fluoropiperidin-1-yl)propyl)benzo[d]imidazo[2,1-b]thiazole-7-carboxamide]",+++ (+++ ≥6)
14,"Cc1c(-c2ccc([C@H]3CCCN3)cc2F)nc2sc3cc(C(=O)NCCCN4CCC(F)CC4)ccc3n12 [Compound 464R, (R)-2-(2-fluoro-4-(pyrrolidin-2-yl)phenyl)-N-(3-(4-fluoropiperidin-1-yl)propyl)-3-methylbenzo[d]imidazo[2,1-b]thiazole-7-carboxamide dihydrochloride]",+++ (+++ ≥6)
15,"Cc1c(-c2ccc([C@@H]3CCCN3)cc2F)nc2sc3cc(C(=O)NCCCN4CCC(F)CC4)ccc3n12 [Compound 464S, (S)-2-(2-fluoro-4-(pyrrolidin-2-yl)phenyl)-N-(3-(4-fluoropiperidin-1-yl)propyl)-3-methylbenzo[d]imidazo[2,1-b]thiazole-7-carboxamide dihydrochloride]",+++ (+++ ≥6)
16,"NC1(c2ccc(-c3cn4c(n3)sc3cc(C(=O)NCCCN5CCC(F)CC5)ccc34)c(F)c2)CC1 [Compound 474, 2-(4-(1-aminocyclopropyl)-2-fluorophenyl)-N-(3-(4-fluoropiperidin-1-yl)propyl)benzo[d]imidazo[2,1-b]thiazole-7-carboxamide]",+++ (+++ ≥6)
17,"O=C(NCCCN1CCC(F)CC1)c1ccc2c(c1)sc1nc(-c3ccc(C4CCCN4)c(F)c3F)cn12 (centres unmarked) [Compound 476, 2-(2,3-difluoro-4-(pyrrolidin-2-yl)phenyl)-N-(3-(4-fluoropiperidin-1-yl)propyl)benzo[d]imidazo[2,1-b]thiazole-7-carboxamide]",+++ (+++ ≥6)
18,"O=C(NCCCN1CCC(F)CC1)c1ccc2c(c1)sc1nc(-c3ccc(C4CCNC4)cc3F)cn12 (centres unmarked) [Compound 479, 2-(2-fluoro-4-(pyrrolidin-3-yl)phenyl)-N-(3-(4-fluoropiperidin-1-yl)propyl)benzo[d]imidazo[2,1-b]thiazole-7-carboxamide]",+++ (+++ ≥6)
19,"O=C(NCCCN1CCC(F)CC1)c1ccc2c(c1)sc1nc(-c3ccc(C4CCCCN4)cc3F)cn12 (centres unmarked) [Compound 480, 2-(2-fluoro-4-(piperidin-2-yl)phenyl)-N-(3-(4-fluoropiperidin-1-yl)propyl)benzo[d]imidazo[2,1-b]thiazole-7-carboxamide]",+++ (+++ ≥6)
20,"O=C(NCCCN1CCC(F)CC1)c1ccc2c(c1)sc1nc(-c3ccc(C4COCCN4)cc3F)cn12 (centres unmarked) [Compound 481, 2-(2-fluoro-4-(morpholin-3-yl)phenyl)-N-(3-(4-fluoropiperidin-1-yl)propyl)benzo[d]imidazo[2,1-b]thiazole-7-carboxamide]",+++ (+++ ≥6)
21,"O=C(NCCCN1CCC(F)CC1)c1ccc2c(c1)sc1nc(-c3ccc(-c4nc[nH]n4)cc3F)cn12 [Compound 483, 2-(2-fluoro-4-(1H-1,2,4-triazol-3-yl)phenyl)-N-(3-(4-fluoropiperidin-1-yl)propyl)benzo[d]imidazo[2,1-b]thiazole-7-carboxamide]",+++ (+++ ≥6)
22,"O=C(NCCCN1CCC(F)CC1)c1ccc2c(c1)sc1nc(-c3ccc(C4CCCN4)c(F)c3)cn12 (centres unmarked) [Compound 484, 2-(3-fluoro-4-(pyrrolidin-2-yl)phenyl)-N-(3-(4-fluoropiperidin-1-yl)propyl)benzo[d]imidazo[2,1-b]thiazole-7-carboxamide]",+++ (+++ ≥6)
23,"O=C(NCCCN1CCC(F)CC1)c1ccc2c(c1)sc1nc(-c3ccc(C4CC(F)(F)CN4)cc3F)cn12 (centres unmarked) [Compound 490, 2-(4-(4,4-difluoropyrrolidin-2-yl)-2-fluorophenyl)-N-(3-(4-fluoropiperidin-1-yl)propyl)benzo[d]imidazo[2,1-b]thiazole-7-carboxamide]",+++ (+++ ≥6)
24,"CN1CCC[C@@H](NC(=O)c2ccc3c(c2)sc2nc(-c4ccc(C5CCCN5)cc4F)cn23)C1 (stereo partly drawn) [Compound 491R, 2-(2-fluoro-4-(pyrrolidin-2-yl)phenyl)-N—((R)-1-methylpiperidin-3-yl)benzo[d]imidazo[2,1-b]thiazole-7-carboxamide]",+++ (+++ ≥6)
25,"CN1CCC[C@H](NC(=O)c2ccc3c(c2)sc2nc(-c4ccc(C5CCCN5)cc4F)cn23)C1 (stereo partly drawn) [Compound 491S, 2-(2-fluoro-4-(pyrrolidin-2-yl)phenyl)-N—((S)-1-methylpiperidin-3-yl)benzo[d]imidazo[2,1-b]thiazole-7-carboxamide]",+++ (+++ ≥6)
26,"NC(=O)c1ccc2c(c1)sc1nc(-c3ccc(C4CCCN4)cc3F)cn12 (centres unmarked) [Compound 492, 2-(2-fluoro-4-(pyrrolidin-2-yl)phenyl)benzo[d]imidazo[2,1-b]thiazole-7-carboxamide]",+++ (+++ ≥6)

# — patent publication US12404283B2, “c-MYC mRNA translation modulators and uses thereof in the treatment of cancer” (Anima Biotech Inc., priority 2022, dated 2025)
